Data as given in paper PMC467089, “Click estradiol dimers with novel aromatic bridging units: synthesis and anticancer evaluation” (Journal of Enzyme Inhibition and Medicinal Chemistry, 2024).

Assays:
[1] = tested on: CCRF-CEM lymphoblasts; test: BrDU incorporation analysis (DNA synthesis); assay type: cell-based, human
Method: (§1) To further characterise the mode of action of studied compounds, we analysed the cell cycle profile of CCRF-CEM cells treated with compounds for 24 h. […] The compounds ED1–ED9 and ED12 induced arrest in G2/M phase of the cell cycle (Figure 2(A)). To differentiate between G2 block and mitotic arrest, we used phospho-histone H3 (Ser10) mitotic marker (Figure 2(B)). […] Generally, dimers induced a dose-dependent increase of sub G1 cell population with fragmented DNA except for ED2 and ED4 (Figure 2(C)). […] To assess the proliferation of treated cells, they were subjected to 5-bromo-2-deoxyuridine (BrDU) labelling. […] Analogously, changes in 5-bromouridine (BrU) incorporation were examined to monitor overall RNA synthesis.
Thirty minutes before harvesting, cells were pulse-labelled with 10 μM BrDU. After overnight fixation in ice-cold 70% ethanol, cells were resuspended in 2 M HCl for 30 min at room temperature (RT), then washed with 0.1 M Na2B4O7 and blocked with PBS containing 0.5% Tween-20 and 1% BSA. BrDU incorporation was analysed using anti-BrdU antibody clone MoBu-1 (Exbio, Vestec, Czech Republic) and a secondary anti-mouse-FITC antibody (Sigma-Aldrich, St. Louis, MO). Cells were washed with PBS and stained with 0.1 mg/mL propidium iodide and 0.5 mg/mL RNase A for 1 h at RT and analysed by flow cytometry using a 488 nm single beam laser (FACSCalibur, Becton Dickinson, Franklin Lakes, NJ). The percentage of cells with incorporated BrDU was analysed using CellQuest software.

[2] = tested on: HCT116 (colorectal adenocarcinoma); test: MTS cytotoxicity assay, HCT116; assay type: cell-based; conditions: Homo sapiens, HCT-116, 72 h, read-out: IC50 cytotoxic activity HCT116
Method: (§2) The p53 deficient variant, HCT116p53−/−, was purchased from Horizon Discovery (Cambridge, UK). The daunorubicin-resistant CCRF-CEM cell line CEM-DNR bulk and paclitaxel-resistant K562-TAX sublines were developed in-house by exposing parental cell lines to escalating concentrations of daunorubicin and paclitaxel, respectively. Cells were maintained in the recommended culture medium (Sigma-Aldrich, St. Louis, MO) supplemented with 10% foetal calf serum, 100 U/mL penicillin, and 100 μg/mL streptomycin. The HUVEC line was obtained from PromoCell (Heidelberg, Germany). The cells were cultured in endothelial cell growth medium with SupplementMix for endothelial cells (PromoCell, Heidelberg, Germany). The incubation conditions were a humidified atmosphere of 95% air and 5% CO2 at 37 °C[10]. Cells were seeded in 384-well plates and after overnight incubation treated with compounds. All tested compounds were dissolved in 100% DMSO, and fourfold serial dilutions were performed using an Echo550 liquid handler (Labcyte, San Jose, CA). The experiments were performed in technical duplicates and three biological replicates. Cells were incubated with compounds for 72 h and thereafter 5 μL of MTS reagent was added to each well.

[3] = tested on: CCRF-CEM (childhood T-cell acute lymphoblastic leukaemia); test: MTS cytotoxicity assay, CCRF-CEM; assay type: cell-based; conditions: Homo sapiens, 72 h, read-out: IC50 cytotoxic activity CCRF-CEM
Method: as §2

[4] = MTS cytotoxicity assay, HUVEC; assay type: cell-based; conditions: human
Method: as §2

[5] = tested on: CCRF-CEM lymphoblasts; test: Phospho-histone H3 (Ser10) mitotic marker, flow cytometry; assay type: cell-based, human
Method: as §1
(§3) Treated CCRF-CEM cells were harvested, washed with ice-cold phosphate-buffered saline (PBS), fixed in cold 70% ethanol and stored at −20 °C. Prior to analysis, fixed cells were permeabilised with 0.25% Triton X-100 in PBS for 15 min, blocked in 1% bovine serum, and incubated with anti-phospho-Histone H3 (Ser^10) antibody (Merck Millipore, Burlington, MA). Subsequently, the cells were treated with 50 μg/mL RNAse, stained with propidium iodide and analysed by FACSCalibur (Becton Dickinson, Franklin Lakes, NJ) flow cytometer at 488 nm. Cell cycle distribution (G1, S, and G2/M) was analysed using ModFitLT software (Verity, Topsham, ME), and reflects only viable population prior to the fixing procedure. Particles with lower propidium iodide content than G1 phase cells were classified as non-viable cells with fragmented DNA. Flow cytometry data visualisation was performed using OriginPro 2018b (b9.5.5.409) software (OriginLab Corporation, Northampton, MA)[10].

[6] = MTS cytotoxicity assay, BJ; assay type: cell-based; conditions: human
Method: as §2

[7] = tested on: CEM-DNR (daunorubicin resistant variant of CCRF-CEM); test: MTS cytotoxicity assay, CEM-DNR; assay type: cell-based, human; conditions: Homo sapiens, CEM-DNR, 72 h, read-out: IC50 cytotoxic activity CEM-DNR
Method: as §2

[8] = tested on: CCRF-CEM lymphoblasts; test: Cell cycle analysis by flow cytometry (propidium iodide); assay type: cell-based, human
Method: as §1, §3

[9] = tested on: A549 (lung adenocarcinoma); test: MTS cytotoxicity assay, A549; assay type: cell-based, human; conditions: for IC50: Homo sapiens, A549, 72 h, read-out: IC50 cytotoxic activity A549
Method: as §2

[10] = tested on: HCT116p53−/− (p53 gene null variant of HCT116); test: MTS cytotoxicity assay, HCT116p53−/−; assay type: cell-based; conditions: Homo sapiens, HCT-116, 72 h, read-out: IC50 cytotoxic activity HCT116p53-
Method: as §2

[11] = tested on: CCRF-CEM lymphoblasts; test: BrU incorporation analysis (RNA synthesis); assay type: cell-based, human
Method: as §1
Prior to the trypsinisation, cells were treated with 1 mM BrU for 30 min. Subsequently, the cells were fixed in 1% paraformaldehyde with 0.05% of NP-40 for 15 min at RT and stored overnight at 4 °C. Fixed cells were washed with 1% glycine in PBS and stained with primary anti-BrdU antibody clone MoBu-1 crossreacting with BrU (Exbio, Vestec, Czech Republic) for 30 min at RT, washed with PBS and labelled with secondary anti-mouse-FITC antibody (Sigma-Aldrich, St. Louis, MO). Following 1-h incubation in 1% paraformaldehyde containing 0.05% NP-40, cells were stained with propidium iodide (0.1 mg/mL) and treated with RNase A (0.5 mg/mL) for 1 h at RT. The percentage of BrU positive cells was quantified using CellQuest software.

[12] = tested on: K562 (chronic myelogenous leukaemia); test: MTS cytotoxicity assay, K562; assay type: cell-based; conditions: Homo sapiens, K562, 72 h, read-out: IC50 cytotoxic activity K562
Method: as §2

[13] = biological target: T1, porcine brain tubulin (Sus scrofa, UniProt P02550+P02554); test: Tubulin polymerisation assay; assay type: biochemical; conditions: 10 μmol/L, Vmax relative to DMSO
T1 construct: purchased Cytoskeleton, Denver, CO; host or cells: porcine brain (tissue-purified)
T1 sequence (P02550 whole entry): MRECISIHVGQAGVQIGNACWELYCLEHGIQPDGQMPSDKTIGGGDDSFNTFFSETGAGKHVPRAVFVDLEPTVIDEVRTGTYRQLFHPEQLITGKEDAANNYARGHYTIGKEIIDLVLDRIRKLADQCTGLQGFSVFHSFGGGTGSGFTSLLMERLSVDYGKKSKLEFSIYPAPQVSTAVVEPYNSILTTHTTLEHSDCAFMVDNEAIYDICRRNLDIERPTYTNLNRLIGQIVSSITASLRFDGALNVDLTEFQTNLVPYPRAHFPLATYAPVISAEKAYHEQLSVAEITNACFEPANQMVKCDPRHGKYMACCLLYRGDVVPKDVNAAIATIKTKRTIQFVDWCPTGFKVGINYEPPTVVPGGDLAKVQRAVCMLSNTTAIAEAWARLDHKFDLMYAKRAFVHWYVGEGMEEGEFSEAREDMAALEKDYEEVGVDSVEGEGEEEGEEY
T1 sequence (P02554 whole entry): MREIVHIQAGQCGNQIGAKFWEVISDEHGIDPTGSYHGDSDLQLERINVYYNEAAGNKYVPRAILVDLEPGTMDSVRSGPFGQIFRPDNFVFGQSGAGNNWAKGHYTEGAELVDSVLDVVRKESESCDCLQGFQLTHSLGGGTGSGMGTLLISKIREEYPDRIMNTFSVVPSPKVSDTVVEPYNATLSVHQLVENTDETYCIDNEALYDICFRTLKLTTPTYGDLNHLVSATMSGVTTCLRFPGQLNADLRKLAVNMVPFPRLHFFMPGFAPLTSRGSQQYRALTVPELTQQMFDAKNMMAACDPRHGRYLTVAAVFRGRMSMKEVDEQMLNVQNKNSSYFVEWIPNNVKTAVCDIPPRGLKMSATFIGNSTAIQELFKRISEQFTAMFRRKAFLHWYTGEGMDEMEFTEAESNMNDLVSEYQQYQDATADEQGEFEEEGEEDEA
Method: Tubulin polymerisation assay kit (Cytoskeleton, Denver, CO) was used according to the manufacturer’s instructions. Polymerisation of porcine brain tubulin (>99% purity) was measured using an EnVision Multilabel Plate Reader (PerkinElmer, Waltham, MA) at 37 °C, in the presence of either 10 μmol/L test compounds or DMSO. Maximum polymerisation velocity (Vmax) was calculated from the polymerisation curves. Data visualisation was performed in OriginPro 2018b (b9.5.5.409) software (OriginLab Corporation, Northampton, MA)[10].

[14] = tested on: U2OS (osteosarcoma); test: MTS cytotoxicity assay, U2OS; assay type: cell-based, human; conditions: for IC50: Homo sapiens, U2OS, 72 h, read-out: IC50 cytotoxic activity U2OS
Method: as §2

[15] = MTS cytotoxicity assay, MRC-5; assay type: cell-based; conditions: human
Method: as §2

[16] = tested on: K562-TAX (paclitaxel-resistant variant of K562); test: MTS cytotoxicity assay, K562-TAX; assay type: cell-based, human; conditions: Homo sapiens, K562-Tax, 72 h, read-out: IC50 cytotoxic activity K562-TAX
Method: as §2

Row | Structure (SMILES) | BrDU, % of positive cells ([1]; 1×IC50, 24 h) [%] | BrDU, % of positive cells ([1]; 5×IC50, 24 h) [%] | IC50 [2] [nM] | IC50 [3] [nM] | IC50 at 72 h [4] [nM] | pH3Ser10, % of positive cells ([5]; 1×IC50, 24 h) [%] | pH3Ser10, % of positive cells ([5]; 5×IC50, 24 h) [%] | IC50 at 72 h [6] [µM] | IC50 [7] [µM] | <G1 (sub-G1, fragmented DNA), % of positive cells ([8]; 1×IC50, 24 h) [%] | >G2/M (polyploidy), % of positive cells ([8]; 1×IC50, 24 h) [%] | G0/G1, % of positive cells ([8]; 1×IC50, 24 h) [%] | G2/M, % of positive cells ([8]; 1×IC50, 24 h) [%] | S, % of positive cells ([8]; 1×IC50, 24 h) [%] | <G1 (sub-G1, fragmented DNA), % of positive cells ([8]; 5×IC50, 24 h) [%] | >G2/M (polyploidy), % of positive cells ([8]; 5×IC50, 24 h) [%] | G0/G1, % of positive cells ([8]; 5×IC50, 24 h) [%] | G2/M, % of positive cells ([8]; 5×IC50, 24 h) [%] | S, % of positive cells ([8]; 5×IC50, 24 h) [%] | IC50 [9] [µM] | other results
1 | C[C@]12CC[C@@H]3c4ccc(O)cc4CC[C@H]3[C@@H]1CC[C@@]2(O)c1cn(Cc2cc(O)cc(Cn3cc([C@]4(O)CC[C@H]5[C@@H]6CCc7cc(O)ccc7[C@H]6CC[C@@]54C)nn3)c2)nn1 [ED2, (17β,17′β)-17,17′-[(5-Hydroxybenzene-1,3-diyl)bis(methanediyl-1H-1,2,3-triazole-1,4-diyl)]bisestra-1,3,5(10)-triene-3,17-diol] | 15.09 | 21.14 | 3570 ± 660 | 1700 ± 190 | < 12.2 | 52.73 | 47.87 | > 50 | > 50 | 28.21 | 8.33 | 2.32 | 64.90 | 32.78 | 19.20 | 8.13 | 0.47 | 58.40 | 41.13 | 6.69 ± 0.79 | IC50 [10]: 4260 ± 940 nM; BrU, % of positive cells ([11]; 1×IC50, 24 h): 41.11%; BrU, % of positive cells ([11]; 5×IC50, 24 h): 41.82%; IC50 [12]: 1480 ± 190 nM; inhibitory activity against tubulin polymerisation (in words) [13]: weak in vitro inhibition; IC50 [14]: > 50 µM; IC50 at 72 h [15]: > 50 µM; IC50 [16]: > 50 µM
2 | CC(=O)Oc1cc(Cn2cc([C@]3(O)CC[C@H]4[C@@H]5CCc6cc(O)ccc6[C@H]5CC[C@@]43C)nn2)cc(Cn2cc([C@]3(O)CC[C@H]4[C@@H]5CCc6cc(O)ccc6[C@H]5CC[C@@]43C)nn2)c1 [ED4, 3,5-Bis({4-[(17β)-3,17-dihydroxyestra-1,3,5(10)-trien-17-yl]-1H-1,2,3-triazol-1-yl}methyl)phenyl acetate] | 26.50 | 7.16 | 2060 ± 180 | 1090 ± 110 | 16 ± 6 | 1.25 | 0.12 | > 50 | > 50 | 61.81 | 6.75 | 25.61 | 40.50 | 33.89 | 31.27 | 10.24 | 8.75 | 71.41 | 19.84 | > 50 | mitosis-specific phosphorylation of histone H3 (in words) ([5]; 1× and 5×IC50, 24 h): did not induce an increase of mitosis-specific phosphorylation of histone H3; IC50 cytotoxic activity A549 [9]: did not exhibit activity; IC50 [10]: 2150 ± 100 nM; BrU, % of positive cells ([11]; 1×IC50, 24 h): 66.58%; BrU, % of positive cells ([11]; 5×IC50, 24 h): 3.26%; IC50 [12]: 490 ± 40 nM; inhibitory activity against tubulin polymerisation (in words) [13]: comparable or better inhibitory activity; IC50 cytotoxic activity U2OS [14]: did not exhibit activity; IC50 [14]: > 50 µM; IC50 at 72 h [15]: > 50 µM; IC50 [16]: > 50 µM
3 | Cc1cc(Cn2cc([C@]3(O)CC[C@H]4[C@@H]5CCc6cc(O)ccc6[C@H]5CC[C@@]43C)nn2)c(O)c(Cn2cc([C@]3(O)CC[C@H]4[C@@H]5CCc6cc(O)ccc6[C@H]5CC[C@@]43C)nn2)c1 [ED6, (17β,17′β)-17,17′-[(2-Hydroxy-5-methylbenzene-1,3-diyl)bis(methanediyl-1H-1,2,3-triazole-1,4-diyl)]bisestra-1,3,5(10)-triene-3,17-diol] | 37.25 | 7.83 | 1740 ± 110 | 1540 ± 250 | < 12.2 | 9.07 | 0.76 | > 50 | > 50 | 11.43 | 6.19 | 32.46 | 29.74 | 37.81 | 36.87 | 9.85 | 8.21 | 73.29 | 18.50 | 8.6 ± 2.22 | IC50 [10]: 1870 ± 130 nM; RNA synthesis, BrU incorporation (in words) ([11]; 1× and 5×IC50, 24 h, gated remaining live cells): high rate of RNA synthesis; BrU, % of positive cells ([11]; 1×IC50, 24 h): 67.97%; BrU, % of positive cells ([11]; 5×IC50, 24 h): 39.43%; IC50 [12]: 1390 ± 210 nM; inhibitory activity against tubulin polymerisation (in words) [13]: comparable or better inhibitory activity; IC50 [14]: 5.06 ± 1.68 µM; IC50 at 72 h [15]: > 50 µM; IC50 [16]: > 50 µM
